Laboratory results reported in article PMC8774231, “Point Mutations at a Key Site Alter the Cytochrome P450 OleP Structural Dynamics” (Biomolecules, 2021).

Assays:
Assay in all cases: UV-visible spectral titration, difference spectra, quadratic fit
Type in all cases: binding
[1] = biological target: T1, cytochrome P450 OleP (Streptomyces antibioticus, UniProt Q59819, E89Y)
T1 construct: recombinant His-tagged OleP mutants from pET28b(+)-OleP, expressed in E. coli BL21(DE3), monomer, heme-containing
T1 sequence (Q59819 1-407 E89Y): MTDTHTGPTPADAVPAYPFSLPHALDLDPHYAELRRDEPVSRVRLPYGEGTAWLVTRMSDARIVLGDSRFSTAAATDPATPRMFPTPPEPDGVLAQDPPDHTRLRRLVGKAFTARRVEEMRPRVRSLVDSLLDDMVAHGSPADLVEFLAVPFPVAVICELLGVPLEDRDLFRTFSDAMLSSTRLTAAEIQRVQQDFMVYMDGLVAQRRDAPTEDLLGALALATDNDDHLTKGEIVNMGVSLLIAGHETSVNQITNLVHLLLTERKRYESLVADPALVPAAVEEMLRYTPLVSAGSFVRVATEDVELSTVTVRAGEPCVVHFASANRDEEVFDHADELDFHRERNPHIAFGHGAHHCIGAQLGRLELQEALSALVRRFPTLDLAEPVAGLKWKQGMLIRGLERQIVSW

[2] = biological target: T2, cytochrome P450 OleP (Streptomyces antibioticus, UniProt Q59819, G92W)
T2 construct: recombinant His-tagged OleP mutants from pET28b(+)-OleP, expressed in E. coli BL21(DE3), monomer, heme-containing
T2 sequence (Q59819 1-407 G92W): T1 sequence (Q59819 1-407 E89Y)

[3] = biological target: T3, cytochrome P450 OleP (Streptomyces antibioticus, UniProt Q59819, S240Y)
T3 construct: recombinant His-tagged OleP mutants from pET28b(+)-OleP, expressed in E. coli BL21(DE3), monomer, heme-containing
T3 sequence (Q59819 1-407 S240Y): T1 sequence (Q59819 1-407 E89Y)

Work on `CC[C@H]1OC(=O)[C@H](C)[C@@H](O)[C@H](C)[C@@H](O)[C@@H](C)C[C@@H](C)C(=O)[C@H](C)[C@@H](O)[C@H]1C` [6DEB] yielded a Kd [1] of 8500 ± 800 nM, a Kd [2] of 1200 ± 100 nM and a Kd [3] of 700 ± 100 nM.
